Patent publication US11642344B2, “Cholesteryl ester transfer protein (CETP) inhibitor and pharmaceutical compositions comprising said inhibitor for use in the treatment or prevention of cardiovascular diseases” (NewAmsterdam Pharma B.V., priority 2014, dated 2023)

Tests used:
[1] = Clinical repeated dose study: safety assessments; format: in vivo, human; details: repeated doses up 25 mg once daily
Protocol: (§1) The clinical study was a repeated dose study in 5 groups of Caucasian male subjects aged 18 to 55 years. Each subject received a single oral dose of Compound A/placebo on Day 1, followed by once daily doses on Days 8 to 35 (5 mg Compound A/placebo—Group 1) or Days 8 to 28 (1, 2.5, 10 and 25 mg Compound A/placebo—Groups 2 to 5). All doses were administered at the study center after a standard breakfast. Subjects in each dose group were allocated to study treatment in a ratio of 10 Compound A to 2 placebo. Blood samples for pharmacokinetic and pharmacodynamic (CETP activity, CETP concentration, HDL-C, LDL-C, total cholesterol, triglycerides) assessments were collected from prior to each dose and at intervals throughout the study until 336 hours after the last dose. Secondary pharmacodynamic endpoints (including apolipoproteins A1, A2, B, and E, HDL2-C, HDL3-C, phospholipids, HDL-free cholesterol [HDL-FC], HDL-cholesteryl ester [HDL-CE], HDL-phospholipids [HDL-PL], HDL-triglycerides [HDL-TG], and LDL particle size) were measured at intervals until the last day of dosing. Urine was collected for pharmacokinetics from pre dose and at intervals up to 72 hours after the first and last dose. Safety assessments including adverse events, blood pressure and pulse rate, ECGs, laboratory safety tests (including aldosterone) and physical examinations were conducted throughout both studies.

[2] = system: CETP; assay: Ex vivo serum CETP activity after oral administration to hamsters; parameters: species or system Syrian Golden hamsters; details: 3 mg/kg oral, suspension in 0.5% CMC, serum 3 hours after administration
Protocol: Syrian Golden hamsters were used for the experiment after 1-week acclimatization. After an overnight fast, animals were orally given the compound suspension in 0.5% sodium carboxymethylcellulose in a volume of 10 mL/kg. Under deep anesthesia with ether, blood was collected from the abdominal aorta 3 hours after the administration. For preparation of serum, the collected blood was transferred to a plastic tube containing a clot activator, left still for 15 minutes at room temperature and centrifuged. Serum CETP activities were determined immediately.
Ninety-five μL serum were added to 5 μL of […] sodium phosphate buffered saline (pH 7.0) containing 1.5 mM 5,5′-dithio-bis(2-nitrobenzoic acid) in two 96-well V-bottom plates. One plate was incubated at 4° C. and the other was incubated at 37° C. After 18 hours of incubation, each sample was mixed with 100 μL of reagent for precipitation of apolipoprotein B-containing lipoproteins (phosphotungstate/MgCl2 reagent, Wako pure chemical), left still for 10 minutes at room temperature and centrifuged. Total cholesterol (TC) and free cholesterol (FC) in supernatant were measured using commercial kits (Cholesterol E-test wako, and Free Cholesterol E-test wako; Wako pure chemical). Cholesteryl ester (CE) was calculated by subtracting FC from TC. CETP activity was determined by the following formula: CETP activity=[CETP transfer]*/[CE value in 4° C. incubation sample] *CETP transfer=[CE value in 4° C. incubation sample]−[CE value in 37° C. incubation sample] (c) Results

[3] = system: CETP; assay: Clinical repeated dose study: plasma CETP concentration (ELISA); format: in vivo, human; details: for Maximum % change from baseline in CETP concentration: repeated oral doses, steady state, mean
Protocol: as §1
(§2) Plasma and urine concentrations of Compound A were determined using validated liquid chromatography with tandem mass spectrometry (LC/MS/MS) methods. The lower limit of quantification (LLQ) for both assays was 0.500 ng/mL. Plasma concentration of CETP was determined using a validated enzyme-linked immunosorbent assay (ELISA) method with a lower limit of quantification (LLQ) of 0.500 μg/mL. CETP activity was determined as the rate of [^3H]-labeled CE transfer from donor HDL to acceptor VLDL/LDL. [^3H]CE-labeled HDL was added to human plasma and incubated for 4 hours at 37° C. Non-HDL lipoproteins were precipitated and separated from HDL, and the amount of radioactivity in the supernatant was quantitated. CETP activity was determined as the difference of the radioactivity between the samples incubated at 37° C. and 4° C. HDL-C and LDL-C were measured by homogenous enzymatic colorimetric assay using a Modular analyser (Roche Diagnostics). Total cholesterol and triglycerides were measured by homogenous enzymatic assay using a Modular analyser (cholesterol oxidase peroxidase-peroxidase aminophenazone phenol [CHOP-PAP]) method and a glycerol phosphate oxidase [GPO-PAP] method, respectively. ApoA1, ApoA2, ApoB and ApoE were measured by immunoturbidimetry using reagents from Rolf Greiner Biochemica (Germany) and N-apoprotein standard serum from Siemens (Germany). LDL particle size was determined by gradient gel electrophoresis. HDL fraction was separated by a combined ultracentrifugation-precipitation method (Beta-quantification). HDL-2 and HDL-3 fractions were then separated by further ultracentrifugation. Total-cholesterol in HDL, HDL-2 and HLD-3 fractions, free cholesterol in HDL fraction, triglycerides in HDL fraction and phospholipids in plasma and HDL-fraction were measured using enzymatic methods and reagents from Diasys Diagnostics (Germany). The measurements were performed on an Olympus AU600 automatic analyzer and were calibrated using secondary standards from Roche Diagnostics (Total-cholesterol, triglycerides) and Diasys Diagnostics (free cholesterol, phospholipids), respectively. Esterified cholesterol was calculated as the difference between total-cholesterol and free cholesterol.
(§3) The sample sizes for the study were chosen based on practical considerations rather than statistical power. The numbers of subjects in each group were considered to be adequate to assess the main objectives of each study. Subjects were allocated to Compound A or placebo in each group by means of a computer-generated randomization code. […]

[4] = Clinical repeated dose study: pharmacokinetics (LC/MS/MS plasma concentrations); format: in vivo, human
Protocol: as §1, §2, §3

[5] = steady state, for a 25-fold increase in dose

In the case of `CCOC(=O)N1c2ccc(C(F)(F)F)cc2[C@@H](N(Cc2cc(C(F)(F)F)cc(C(F)(F)F)c2)c2ncc(OCCCC(=O)O)cn2)C[C@H]1CC` [Compound A, {4-[(2-{[3,5-bis(trifluoromethyl)benzyl][(2R,4S)-1-(ethoxycarbonyl)-2-ethyl-6-(trifluoromethyl)-1,2,3,4-tetrahydroquinolin-4-yl]amino}pyrimidin-5-yl)oxy]butanoic acid}], the “effect on serum electrolyte or aldosterone concentrations” value [1] is reported as “no effect”, the “effects on blood pressure or heart rate, ECG variables, physical examination or laboratory safety tests” value [1] is reported as “no clinically significant effects” and the serious adverse events [1] is reported as “no serious adverse events”. The tolerability [1] was “well tolerated”, the “ex vivo (% inhibition) 3 mg/kg (CMC)” value [2] was 79.2% and the “Maximum % change from baseline in CETP concentration” value (“Maximum % change from baseline” below) ([3]; 1 mg once daily) was 128%. The “Maximum % change from baseline” value ([3]; 2.5 mg once daily) was 144%, the “Maximum % change from baseline” value ([3]; 5 mg once daily) was 215% and the “Maximum % change from baseline” value ([3]; 10 mg once daily) was 249%. The “Maximum % change from baseline” value ([3]; 25 mg once daily) was 280%, the “CETP concentration higher than baseline after cessation of dosing” value ([3]; 2 weeks following 10 mg and 25 mg) was “approximately 1.4 fold” and the “CETP concentration after cessation of dosing (in words)” value ([3]; within 2 weeks following 1 mg and 5 mg) was “approaching baseline values”. The “accumulation with once daily dosing” value ([4]; 1 mg) was “approximately 6 fold”, the “accumulation with once daily dosing” value ([4]; 25 mg) was 2 fold and the “residual effects on cessation of dosing” value ([4]; at the claimed dose (1 to 25 mg per day)) was “does not show prolonged residual effects”. For the same compound, the food effects ([4]; clinical studies) was “does not suffer from food effects”, the half-life ([4]; male, human, plasma, oral, following the last dose, independent of dose, read-out: mean terminal half-life) was 121 to 151 h and the Tmax ([4]; male, human, plasma, oral, post-dose, independent of dose, 1 to 25 mg, read-out: Tmax (median)) was 4 to 6 h. For the same compound, the “CVs for Cmax, Cmin and AUC parameters” value ([4]; single and multiple dosing) was at most 33%, the “increase of plasma concentrations with dose” value ([4]; single doses from 1 to 25 mg) was “approximately proportionally to dose” and the “increase in AUC0-tau,ss” value [4, 5] was 9 fold. The “increase in Cmax,ss” value [4, 5] was 12 fold and the “increase in Cmin,ss” value [4, 5] was 7 fold.
